Laboratory results as given in patent US10494366B2, “Pesticidally active amide heterocyclic derivatives with sulphur containing substituents” (Syngenta Participations AG, priority 2014, dated 2019).

Experiments:
Type in all cases: in vivo
[1] = system: Spodoptera littoralis (Egyptian cotton leaf worm); assay: Example B1: Spodoptera littoralis, sprayed cotton leaf discs; conditions: foliar, 72 h, application rate 200 ppm, L1 larvae, 3 days after infestation, read-out: control in at least one of the three categories (mortality, anti-feedancy or growth inhibition)
Protocol: Cotton leaf discs were placed on agar in 24-well microtiter plates and sprayed with aqueous test solutions prepared from 10,000 ppm DMSO stock solutions. After drying the leaf discs were infested with five L1 larvae. The samples were assessed for mortality, anti-feedant effect, and growth inhibition in comparison to untreated samples 3 days after infestation. Control of Spodoptera littoralis by a test sample is when at least one of mortality, anti-feedant effect, and growth inhibition is higher than the untreated sample.

[2] = system: Plutella xylostella (diamond back moth); assay: Example B3: Plutella xylostella, treated artificial diet; conditions: 120 h, application rate 200 ppm, L2 larvae, 5 days after infestation, read-out: effect in at least one of the two categories (mortality or growth inhibition)
Protocol: 24-well microtiter plates with artificial diet were treated with aqueous test solutions prepared from 10,000 ppm DMSO stock solutions by pipetting. After drying, the plates were infested with L2 larvae (10 to 15 per well). The samples were assessed for mortality and growth inhibition in comparison to untreated samples 5 days after infestation.

[3] = system: Diabrotica balteata (corn root worm); assay: Example B4: Diabrotica balteata, sprayed maize sprouts; conditions: 96 h, application rate 200 ppm, L2 larvae, 4 days after infestation, read-out: effect in at least one of the two categories (mortality or growth inhibition)
Protocol: Maize sprouts, placed on an agar layer in 24-well microtiter plates were treated with aqueous test solutions prepared from 10,000 ppm DMSO stock solutions by spraying. After drying, the plates were infested with L2 larvae (6 to 10 per well). The samples were assessed for mortality and growth inhibition in comparison to untreated samples 4 days after infestation.

[4] = system: Myzus persicae (green peach aphid); assay: Example B5: Myzus persicae, sprayed sunflower leaf discs; conditions: foliar, 144 h, application rate 200 ppm, aphid population of mixed ages, 6 days after infestation
Protocol: Sunflower leaf discs were placed on agar in a 24-well microtiter plate and sprayed with aqueous test solutions prepared from 10,000 ppm DMSO stock solutions. After drying, the leaf discs were infested with an aphid population of mixed ages. The samples were assessed for mortality 6 days after infestation.

[5] = system: Euschistus heros (neotropical brown stink bug); assay: Example B6: Euschistus heros, sprayed soybean leaf; conditions: 120 h, application rate 200 ppm, N-2 nymphs, 5 days after infestation
Excerpt: Soybean leaf on agar in 24-well microtiter plates were sprayed with aqueous test solutions prepared from 10,000 ppm DMSO stock solutions. After drying the leaf were infested with N-2 nymphs.

[6] = system: Spodoptera littoralis (Egyptian cotton leaf worm); assay: Example B2: Spodoptera littoralis, systemic test via lettuce roots in agar; conditions: 144 h, application rate 12.5 ppm, Spodoptera eggs, 6 days after infestation, read-out: control in at least one of the three categories (mortality, anti-feedancy or growth inhibition)
Excerpt: Test compounds were applied by pipette from 10,000 ppm DMSO stock solutions into 24-well plates and mixed with agar. Lettuce seeds were placed on the agar and the multi well plate was closed by another plate which contains also agar. After 7 days the roots have absorbed the compound and the lettuce has grown into the lid plate. The lettuce leafs were now cut off into the lid plate. Spodoptera eggs were pipetted through a plastic stencil on a humid gel blotting paper and the plate closed with it. The samples were assessed for mortality, anti-feedant effect and growth inhibition in comparison to untreated samples 6 days after infestation.
The following compounds gave an effect of at least 80% control in at least one of the three categories (mortality, anti-feedancy or growth inhibition) at an application rate of 12.5 ppm: P2, P3, P8, P9, P11 and P17, P19, P20, P22, P23, P25, P26, P28, P30, P31, P32, P33, P40, P42, P43, P44, P45, P46, P47, P48, P49, P50, P51, P52, P53, P54, P60 and P61.

CCS(=O)(=O)c1cc(-c2ccccc2)cnc1C(=O)/N=c1\sc(C(F)(F)F)nn1C [Compound P6, (N)-3-ethylsulfonyl-N-[3-methyl-5-(trifluoromethyl)-1,3,4-thiadiazol-2-ylidene]-5-phenyl-pyridine-2-carboxamide]
≥ 80%: percent control (mortality, anti-feedant effect or growth inhibition) at 200 ppm [1] | percent effect (mortality or growth inhibition) at 200 ppm [2] | percent effect (mortality or growth inhibition) at 200 ppm [3] | mortality at 200 ppm [4] | mortality at 200 ppm [5]

CCS(=O)(=O)c1cc(-c2ncc(F)cc2F)cnc1C(=O)/N=c1\sc(C(F)(F)F)nn1C [Compound P66]
≥ 80%: percent control (mortality, anti-feedant effect or growth inhibition) at 200 ppm [1] | percent effect (mortality or growth inhibition) at 200 ppm [2] | percent effect (mortality or growth inhibition) at 200 ppm [3] | mortality at 200 ppm [4] | mortality at 200 ppm [5]

CCS(=O)(=O)c1cc(-c2ccc(C(F)(F)F)cc2)cnc1C(=O)N=c1ccc(SC(F)(F)F)cn1C [Compound P16]
≥ 80%: percent control (mortality, anti-feedant effect or growth inhibition) at 200 ppm [1] | percent effect (mortality or growth inhibition) at 200 ppm [2] | percent effect (mortality or growth inhibition) at 200 ppm [3] | mortality at 200 ppm [4] | mortality at 200 ppm [5]

CCS(=O)(=O)c1cc(C2CC2)cnc1C(=O)/N=c1\ccc(SC(F)(F)F)cn1C [Compound P18, (N)-5-cyclopropyl-3-ethylsulfonyl-N-[1-methyl-5-(trifluoromethylsulfanyl)-2-pyridylidene]pyridine-2-carboxamide]
≥ 80%: percent control (mortality, anti-feedant effect or growth inhibition) at 200 ppm [1] | percent effect (mortality or growth inhibition) at 200 ppm [2] | percent effect (mortality or growth inhibition) at 200 ppm [3] | mortality at 200 ppm [4] | mortality at 200 ppm [5]

CCS(=O)(=O)c1cc(-c2cccc(C#N)c2)cnc1C(=O)/N=c1\sc(C(F)(F)F)nn1C [Compound P23]
≥ 80%: percent control (mortality, anti-feedant effect or growth inhibition) at 200 ppm [1] | percent control (mortality, anti-feedant effect or growth inhibition) at 12.5 ppm [6] | percent effect (mortality or growth inhibition) at 200 ppm [2] | percent effect (mortality or growth inhibition) at 200 ppm [3] | mortality at 200 ppm [5]

CCS(=O)(=O)c1cc(-c2ccc(Cl)cn2)cnc1C(=O)/N=c1\sc(C(F)(F)F)nn1C [Compound P49]
≥ 80%: percent control (mortality, anti-feedant effect or growth inhibition) at 200 ppm [1] | percent control (mortality, anti-feedant effect or growth inhibition) at 12.5 ppm [6] | percent effect (mortality or growth inhibition) at 200 ppm [2] | percent effect (mortality or growth inhibition) at 200 ppm [3] | mortality at 200 ppm [5]

CCS(=O)(=O)c1cc(-c2ccc(C#N)cc2)cnc1C(=O)/N=c1\sc(C(F)(F)F)nn1C [Compound P28]
≥ 80%: percent control (mortality, anti-feedant effect or growth inhibition) at 200 ppm [1] | percent control (mortality, anti-feedant effect or growth inhibition) at 12.5 ppm [6] | percent effect (mortality or growth inhibition) at 200 ppm [2] | percent effect (mortality or growth inhibition) at 200 ppm [3] | mortality at 200 ppm [5]

CCS(=O)(=O)c1cc(-c2ncc(C(F)(F)F)cn2)cnc1C(=O)/N=c1\sc(C(F)(F)F)nn1C [Compound P43]
≥ 80%: percent control (mortality, anti-feedant effect or growth inhibition) at 200 ppm [1] | percent control (mortality, anti-feedant effect or growth inhibition) at 12.5 ppm [6] | percent effect (mortality or growth inhibition) at 200 ppm [2] | percent effect (mortality or growth inhibition) at 200 ppm [3] | mortality at 200 ppm [5]

CCS(=O)(=O)c1cc(-c2cnc(C(F)(F)F)s2)cnc1C(=O)/N=c1\sc(C(F)(F)F)nn1C [Compound P56]
≥ 80%: percent control (mortality, anti-feedant effect or growth inhibition) at 200 ppm [1] | percent effect (mortality or growth inhibition) at 200 ppm [2] | percent effect (mortality or growth inhibition) at 200 ppm [3] | mortality at 200 ppm [4]

CCS(=O)(=O)c1cc(-c2ccc(C(F)(F)F)cc2)cnc1C(=O)/N=c1\sc(C(F)(F)F)nn1C [Compound P5]
≥ 80%: percent control (mortality, anti-feedant effect or growth inhibition) at 200 ppm [1] | percent effect (mortality or growth inhibition) at 200 ppm [2] | percent effect (mortality or growth inhibition) at 200 ppm [3] | mortality at 200 ppm [4] | mortality at 200 ppm [5]

CCS(=O)(=O)c1cc(-c2cccc(C#N)n2)cnc1C(=O)/N=c1\sc(C(F)(F)F)nn1C [Compound P48]
≥ 80%: percent control (mortality, anti-feedant effect or growth inhibition) at 200 ppm [1] | percent control (mortality, anti-feedant effect or growth inhibition) at 12.5 ppm [6] | percent effect (mortality or growth inhibition) at 200 ppm [2] | percent effect (mortality or growth inhibition) at 200 ppm [3] | mortality at 200 ppm [5]

CCS(=O)(=O)c1cc(-c2cncc(C(F)(F)F)n2)cnc1C(=O)/N=c1\sc(C(F)(F)F)nn1C [Compound P61]
≥ 80%: percent control (mortality, anti-feedant effect or growth inhibition) at 200 ppm [1] | percent control (mortality, anti-feedant effect or growth inhibition) at 12.5 ppm [6] | percent effect (mortality or growth inhibition) at 200 ppm [2] | percent effect (mortality or growth inhibition) at 200 ppm [3] | mortality at 200 ppm [5]

CCS(=O)(=O)c1cc(-c2ccc(F)cc2F)cnc1C(=O)/N=c1\sc(C(F)(F)F)nn1C [Compound P25]
≥ 80%: percent control (mortality, anti-feedant effect or growth inhibition) at 200 ppm [1] | percent control (mortality, anti-feedant effect or growth inhibition) at 12.5 ppm [6] | percent effect (mortality or growth inhibition) at 200 ppm [2] | percent effect (mortality or growth inhibition) at 200 ppm [3] | mortality at 200 ppm [5]

CCS(=O)(=O)c1cc(-c2ncc(C(F)(F)F)cc2F)cnc1C(=O)/N=c1\sc(C(F)(F)F)nn1C [Compound P47]
≥ 80%: percent control (mortality, anti-feedant effect or growth inhibition) at 200 ppm [1] | percent control (mortality, anti-feedant effect or growth inhibition) at 12.5 ppm [6] | percent effect (mortality or growth inhibition) at 200 ppm [2] | percent effect (mortality or growth inhibition) at 200 ppm [3] | mortality at 200 ppm [5]

CCS(=O)(=O)c1cc(-c2ccc(C#N)nc2)cnc1C(=O)/N=c1\sc(C(F)(F)F)nn1C [Compound P52]
≥ 80%: percent control (mortality, anti-feedant effect or growth inhibition) at 200 ppm [1] | percent control (mortality, anti-feedant effect or growth inhibition) at 12.5 ppm [6] | percent effect (mortality or growth inhibition) at 200 ppm [2] | percent effect (mortality or growth inhibition) at 200 ppm [3] | mortality at 200 ppm [5]

CCS(=O)(=O)c1cc(-c2ccc(C(F)(F)F)cn2)cnc1C(=O)/N=c1\sc(C(F)(F)F)nn1C [Compound P50]
≥ 80%: percent control (mortality, anti-feedant effect or growth inhibition) at 200 ppm [1] | percent control (mortality, anti-feedant effect or growth inhibition) at 12.5 ppm [6] | percent effect (mortality or growth inhibition) at 200 ppm [2] | percent effect (mortality or growth inhibition) at 200 ppm [3] | mortality at 200 ppm [5]

CCS(=O)(=O)c1cc(-c2cccc(F)c2)cnc1C(=O)/N=c1\sc(C(F)(F)F)nn1C [Compound P26]
≥ 80%: percent control (mortality, anti-feedant effect or growth inhibition) at 200 ppm [1] | percent control (mortality, anti-feedant effect or growth inhibition) at 12.5 ppm [6] | percent effect (mortality or growth inhibition) at 200 ppm [2] | percent effect (mortality or growth inhibition) at 200 ppm [3] | mortality at 200 ppm [5]

CCS(=O)(=O)c1cc(-c2cc(F)ccc2F)cnc1C(=O)/N=c1\sc(C(F)(F)F)nn1C [Compound P33]
≥ 80%: percent control (mortality, anti-feedant effect or growth inhibition) at 200 ppm [1] | percent control (mortality, anti-feedant effect or growth inhibition) at 12.5 ppm [6] | percent effect (mortality or growth inhibition) at 200 ppm [2] | percent effect (mortality or growth inhibition) at 200 ppm [3] | mortality at 200 ppm [5]
